ChEMBL document CHEMBL6087487, “Discovery of a 2'-α-Fluoro-2'-β-C-(fluoromethyl) Purine Nucleotide Prodrug as a Potential Oral Anti-SARS-CoV-2 Agent” (J Med Chem, 2025)
pEC50: −log10 of the molar value.

How the values were obtained:
SARS-CoV-2 [1] = assay: (§1) Antiviral activity against SARS-CoV-2 20SF107 infected in HPAEpiC cells assessed as inhibition of viral replication pretreated with compound and subsequent introduction of viral infection for 1 hr followed by inoculum removal and compound washout and further treatment with compound for 48 hrs by RT-qPCR analysis; type: functional, organism-based; details: for pEC50: Severe acute respiratory syndrome coronavirus 2, 20SF107, HPAEpiC
SARS-CoV-2 [2] = assay: as §1, with “Omicron BA.5” for “20SF107”; type: functional, organism-based; details: Severe acute respiratory syndrome coronavirus 2, Omicron BA.5, HPAEpiC

| Compound | pEC50 (SARS-CoV-2 [1]) | inhibition (SARS-CoV-2 [1]; Severe acute respiratory syndrome coronavirus 2, time 49.0 hrs) | pEC50 (SARS-CoV-2 [2]) |
| --- | --- | --- | --- |
| CNc1nc(N)nc2c1ncn2[C@@H]1O[C@H](CO[P@@](=O)(N[C@@H](C)C(=O)OC(C)C)Oc2ccccc2)[C@@H](O)[C@]1(F)CF.O=S(=O)(O)O | 6.25 | Dose-dependent-effect | 6.02 |
| CCC(CC)COC(=O)[C@H](C)N[P@](=O)(OC[C@H]1O[C@@](C#N)(c2ccc3c(N)ncnn23)[C@H](O)[C@@H]1O)Oc1ccccc1 [REMDESIVIR] | 6.04 |  |  |
